Drawing on US20050009894A1 (Aventis Pharma S.A., priority 2001, published 2005), this text covers IC50 for 28 compounds.

Structures are written as SMILES. Bounds are passed on as bounds.

T1 sequence (P35968 786-1356 limits assumed): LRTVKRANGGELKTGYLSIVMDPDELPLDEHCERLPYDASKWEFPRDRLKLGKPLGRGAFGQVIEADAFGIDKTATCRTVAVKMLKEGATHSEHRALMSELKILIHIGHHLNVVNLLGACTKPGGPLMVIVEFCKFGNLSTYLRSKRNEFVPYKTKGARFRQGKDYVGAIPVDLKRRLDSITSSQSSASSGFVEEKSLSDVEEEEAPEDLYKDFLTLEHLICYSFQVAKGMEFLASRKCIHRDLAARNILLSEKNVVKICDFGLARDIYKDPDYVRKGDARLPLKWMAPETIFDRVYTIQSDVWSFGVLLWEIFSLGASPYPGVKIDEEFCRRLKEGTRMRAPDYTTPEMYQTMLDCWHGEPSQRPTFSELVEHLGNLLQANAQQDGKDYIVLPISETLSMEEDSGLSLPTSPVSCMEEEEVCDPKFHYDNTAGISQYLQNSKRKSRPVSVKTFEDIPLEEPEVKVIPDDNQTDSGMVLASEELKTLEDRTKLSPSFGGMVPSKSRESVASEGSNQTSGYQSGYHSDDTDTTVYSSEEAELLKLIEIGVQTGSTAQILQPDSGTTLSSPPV

The experiment addresses T1, human KDR enzyme (Homo sapiens, UniProt P35968).
T1 construct: The cytoplasmic domain of human KDR enzyme is cloned in the form of a GST fusion; GST; made in house; host or cells: SF21 insect cells (baculovirus, pFastBac)
Nature of the experiment: Phosphorylation of the substrate PLCγ by the enzyme KDR in vitro (flashplate technique). Format: biochemical. The following applies: Table VII, degrees of activity by IC50 range; read-out: Activity. The method, boiled down:
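GST-fused human KDR cytoplasmic domain (Sf21 baculovirus, ~60% pure; 100 ng/well) phosphorylating 2 μg GST-PLCγ SH2-SH3 fragment in MOPS pH 7.2 with MgCl2/MnCl2, 1 h at 37° C. Started with γ33P-ATP plus cold ATP (2 μM in start solution); flashplate radioactivity. % inhibition vs no-compound control; IC50 from dose-response curves.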
In the case of `O=C(NCc1ccc(-c2cc(Cl)cc(Cl)c2)cc1)c1ccc2[nH]c(-c3n[nH]c4ccccc34)nc2c1` [Example 163, 2-(1H-Indazol-3-yl)-1H-benzoimidazole-5-carboxylic acid (3′,5′-dichloro-biphenyl-4-ylmethyl)-amide], the IC50 is more than 3000 nM.

For the compound `O=C(NCc1ccc(-c2ccc(F)cc2)cc1)c1ccc2[nH]c(-c3n[nH]c4ccccc34)nc2c1` [Example 164], the IC50 was more than 3000 nM.

As to `O=C(NCc1ccccc1F)c1ccc2[nH]c(-c3n[nH]c4ccccc34)nc2c1` [Example 165, 2-(1H-Indazol-3-yl)-1H-benzoimidazole-5-carboxylic acid 2-fluoro-benzylamide], the IC50 was more than 3000 nM.

`Cc1ccc(F)c(CNC(=O)c2ccc3[nH]c(-c4n[nH]c5ccccc45)nc3c2)c1F` [Example 166, 2-(1H-Indazol-3-yl)-1H-benzoimidazole-5-carboxylic acid 2,6-difluoro-3-methyl-benzylamide]: the IC50 was in the range of 300 to 3000 nM.

In the case of `O=C(NCc1ccc(Cl)cc1Cl)c1ccc2[nH]c(-c3n[nH]c4ccccc34)nc2c1` [Example 167, 2-(1H-Indazol-3-yl)-1H-benzoimidazole-5-carboxylic acid 2,4-dichloro-benzylamide], the IC50 was less than 300 nM.

With `O=C(NCc1ccc(Cl)cc1)c1ccc2[nH]c(-c3n[nH]c4ccccc34)nc2c1` [Example 168, 2-(1H-Indazol-3-yl)-1H-benzoimidazole-5-carboxylic acid 4-chloro-benzylamide], the IC50 is less than 300 nM.

`Cc1cc(Cl)ccc1CNC(=O)c1ccc2[nH]c(-c3n[nH]c4ccccc34)nc2c1` [Example 169, 2-(1H-Indazol-3-yl)-1H-benzoimidazole-5-carboxylic acid 4-chloro-2-methyl-benzylamide]: the IC50 is less than 300 nM.

Take `O=C(NCc1ccc(F)cc1)c1ccc2[nH]c(-c3n[nH]c4ccccc34)nc2c1` [Example 170, 2-(1H-Indazol-3-yl)-1H-benzoimidazole-5-carboxylic acid 4-fluoro-benzylamide]: the IC50 lay within 300 to 3000 nM.

With `O=C(NCc1ccc(-c2ccccc2Cl)cc1)c1ccc2[nH]c(-c3n[nH]c4ccccc34)nc2c1` [Example 171, 2-(1H-Indazol-3-yl)-1H-benzoimidazole-5-carboxylic acid (2′-chloro-biphenyl-4-ylmethyl)-amide], the IC50 is 300 to 3000 nM.

`O=C(NCc1ccc(C(F)(F)F)nc1)c1ccc2[nH]c(-c3n[nH]c4ccccc34)nc2c1` [Example 172, 2-(1H-Indazol-3-yl)-1H-benzoimidazole-5-carboxylic acid (6-trifluoromethyl-pyridin-3-ylmethyl)-amide]: the IC50 fell in the range of 300 to 3000 nM.

Take `O=C(NCc1ccc(-c2ccccn2)s1)c1ccc2[nH]c(-c3n[nH]c4ccccc34)nc2c1` [Example 173, 2-(1H-Indazol-3-yl)-1H-benzoimidazole-5-carboxylic acid (5-pyridin-2-yl-thiophen-2-ylmethyl)-amide]: the IC50 fell in the range of 300 to 3000 nM.

`O=C(NCCCn1ccnc1)c1ccc2[nH]c(-c3n[nH]c4ccccc34)nc2c1` [Example 174, 2-(1H-Indazol-3-yl)-1H-benzoimidazole-5-carboxylic acid (3-imidazol-1-yl-propyl)-amide]: the IC50 lay within 300 to 3000 nM.

With `CC(C)(C)OC(=O)N1CCN(C(=O)c2ccc3[nH]c(-c4n[nH]c5ccccc45)nc3c2)CC1` [Example 175, 4-[2-(1H-Indazol-3-yl)-1H-benzoimidazole-5-carbonyl]-piperazine-1-carboxylic acid tert-butyl ester], the IC50 was in the range of 300 to 3000 nM.

As to `O=C(NCc1c(F)cc(Cl)cc1F)c1ccc2[nH]c(-c3n[nH]c4ccccc34)nc2c1` [Example 176, 2-(1H-Indazol-3-yl)-1H-benzoimidazole-5-carboxylic acid (2,6-difluoro-4-chloro-benzyl)amide], the IC50 is less than 300 nM.

For the compound `O=C(NCc1c(F)cc(Cl)cc1Cl)c1ccc2[nH]c(-c3n[nH]c4ccccc34)nc2c1` [Example 177, 2-(1H-Indazol-3-yl)-1H-benzoimidazole-5-carboxylic acid (2,4-dichloro-6-fluoro-benzyl)amide], the IC50 is less than 300 nM.

`O=C(NCc1ccc(Cl)c(F)c1)c1ccc2[nH]c(-c3n[nH]c4ccccc34)nc2c1` [Example 178, 2-(1H-Indazol-3-yl)-1H-benzoimidazole-5-carboxylic acid (3-fluoro-4-chloro-benzyl)amide]: the IC50 is less than 300 nM.

`Cc1cc(Cl)cc(F)c1CNC(=O)c1ccc2[nH]c(-c3n[nH]c4ccccc34)nc2c1` [Example 179, 2-(1H-Indazol-3-yl)-1H-benzoimidazole-5-carboxylic acid (2-fluoro-4-chloro-6-methyl-benzyl)amide]: the IC50 was less than 300 nM.

`COc1ccc(CNC(=O)c2ccc3[nH]c(-c4n[nH]c5ccccc45)nc3c2)cn1` [Example 180, 2-(1H-Indazol-3-yl)-1H-benzoimidazole-5-carboxylic acid (6-methoxy-pyridin-3-ylmethyl)-amide]: the IC50 is less than 300 nM.

`c1ccc(COc2cc(-c3nc4ccccc4[nH]3)[nH]n2)cc1` [Example 181, 2-[5-(benzyloxy)-2H-pyrazol-3-yl]-1H-benzoimidazole]: the IC50 was in the range of 300 to 3000 nM.

Regarding `C(=C\c1ccccc1)/COc1cc(-c2nc3ccccc3[nH]2)[nH]n1` [Example 182, 2-[5-(3-Phenyl-allyloxy)-2H-pyrazol-3-yl]-1H-benzoimidazole], the IC50 lay within 300 to 3000 nM.

As to `C=C(C)COc1cc(-c2nc3ccccc3[nH]2)[nH]n1` [Example 183, 2-[5-(2-Methyl-allyloxy)-2H-pyrazol-3-yl]-1H-benzoimidazole], the IC50 was more than 3000 nM.

As for `CC(C)=CCC/C(C)=C/COc1cc(-c2nc3ccccc3[nH]2)[nH]n1` [Example 184, 2-[5-(3,7-Dimethyl-octa-2,6-dienyloxy)-2H-pyrazol-3-yl]-1H-benzoimidazole], the IC50 was 300 to 3000 nM.

As for `Brc1cccc(COc2cc(-c3nc4ccccc4[nH]3)[nH]n2)c1` [Example 185, 2-[5-(3-Bromo-benzyloxy)-2H-pyrazol-3-yl]-1H-benzoimidazole], the IC50 fell in the range of 300 to 3000 nM.

For the compound `N#Cc1cccc(COc2cc(-c3nc4ccccc4[nH]3)[nH]n2)c1` [Example 186, 3-[5-(1H-Benzoimidazol-2-yl)-1H-pyrazol-3-yloxymethyl]-benzonitrile], the IC50 was more than 3000 nM.

Consider `FC(F)(F)c1ccc(COc2cc(-c3nc4ccccc4[nH]3)[nH]n2)cc1` [Example 187, 2-[5-(4-Trifluoromethyl-benzyloxy)-2H-pyrazol-3-yl]-1H-benzoimidazole], for which the IC50 was more than 3000 nM.

As for `Clc1ccc(COc2cc(-c3nc4ccccc4[nH]3)[nH]n2)cc1Cl` [Example 188, 2-[5-(3,4-Dichloro-benzyloxy)-2H-pyrazol-3-yl]-1H-benzoimidazole], the IC50 was in the range of 300 to 3000 nM.

As for `Fc1c(F)c(F)c(COc2cc(-c3nc4ccccc4[nH]3)[nH]n2)c(F)c1F` [Example 189, 2-(5-Pentafluoro-phenylmethoxy-2H-pyrazol-3-yl)-1H-benzoimidazole], the IC50 was more than 3000 nM.

Regarding `CC(C)(C)c1ccc(COc2cc(-c3nc4ccccc4[nH]3)[nH]n2)cc1` [Example 190, 2-[5-(4-tert-Butyl-benzyloxy)-2H-pyrazol-3-yl]-1H-benzoimidazole], the IC50 is more than 3000 nM.
